Measurements: patent publication US20240299377A1, “METHODS AND COMPOSITIONS FOR TREATING IRON DISORDERS” (BeyondSpring Pharmaceuticals, Inc., priority 2019, published 2024)

Test system: plasma haptoglobin levels
Assay: Plasma haptoglobin levels in non-metastatic breast cancer patients receiving TAC plus plinabulin (hematology safety assessments)
Format: in vivo, human
Description: Method. Non-metastatic Breast Cancer patients receiving TAC (taxotere, doxorubicin, cyclophosphamide) also received plinabulin at a dose of 10 (n=15), 20 (n=15) or 30 (n=12) mg/m^2. Hematology safety assessments were done at predose, and post-dose plinabulin at Day 2, 3, 6, 7, 8, 9, 10, 11, 12, 13 and 15, as predefined prospectively per protocol. Plinabulin was given on Day 1 as a single dose per 21-day cycle.

With CC(C)(C)c1[nH]cnc1/C=c1\[nH]c(=O)/c(=C/c2ccccc2)[nH]c1=O [Plinabulin, (3Z,6Z)-3-Benzylidene-6-{[5-(2-methyl-2-propanyl)-1H-imidazol-4-yl]methylene}-2,5-piperazinedione] the “dose comparison for increasing plasma haptoglobin levels” value (30 mg/m^2 vs lower doses (10, 20 mg/m^2), p<0.01) was “most effective dose”, the “mean (SD) increase of maximum haptoglobin levels from baseline” value (Plinabulin 30 mg/m^2 single dose on Day 1 of 21-day cycle with TAC, baseline mean (SD) 1.32 (0.453) g/L, p<0.0005) was 1.61 (1.29) g/L and the “fold increase of maximum haptoglobin levels” value (Plinabulin 30 mg/m^2 single dose, versus baseline) was “more than 2 fold”. The “duration of haptoglobin increase” value (single dose 30 mg/m^2, FIG. 1) was over 3 weeks and the “time to haptoglobin (Hp) increase after plinabulin dosing” value (single dose 30 mg/m^2, P<0.03) was at most 2 days.
